Experiments:
FRAP1 = target: T1, FRAP1 (Homo sapiens, UniProt P42345); assay: Proqinase Kinase profiling; format: biochemical; details: read-out: % inhibition at 100nM
T1 construct: purchased DiscoverX

MAP4K4 = target: T2, MAP4K4 (Homo sapiens, UniProt O95819); assay: Proqinase Kinase profiling; format: biochemical; details: read-out: % inhibition at 100nM
T2 construct: purchased DiscoverX

EIF2AK3 = target: T3, EIF2AK3 (Homo sapiens, UniProt Q9NZJ5); assay: Proqinase Kinase profiling; format: biochemical; details: read-out: % inhibition at 100nM
T3 construct: purchased DiscoverX

RPS6KA4 = target: T4, RPS6KA4 (Homo sapiens, UniProt O75676); assay: Proqinase Kinase profiling; format: biochemical; details: read-out: % inhibition at 100nM
T4 construct: purchased DiscoverX

RPS6KB2 = target: T5, RPS6KB2 (Homo sapiens, UniProt Q9UBS0); assay: Proqinase Kinase profiling; format: biochemical; details: read-out: % inhibition at 100nM
T5 construct: purchased DiscoverX

FGFR4 = target: T6, FGFR4 (Homo sapiens, UniProt P22455); assay: Proqinase Kinase profiling; format: biochemical; details: read-out: % inhibition at 100nM
T6 construct: purchased DiscoverX

ABL1_Q252H = target: T7, ABL1_Q252H (Homo sapiens, UniProt P00519, Q252H); assay: Proqinase Kinase profiling; format: biochemical; details: read-out: % inhibition at 100nM
T7 construct: purchased DiscoverX

EGFR_G719C = target: T8, EGFR_G719C (Homo sapiens, UniProt P00533, G719C); assay: Proqinase Kinase profiling; format: biochemical; details: read-out: % inhibition at 100nM
T8 construct: purchased DiscoverX

TYK2 = target: T9, TYK2 (Homo sapiens, UniProt P29597); assay: Proqinase Kinase profiling; format: biochemical; details: read-out: % inhibition at 100nM
T9 construct: purchased DiscoverX
T9 sequence (P29597 whole entry): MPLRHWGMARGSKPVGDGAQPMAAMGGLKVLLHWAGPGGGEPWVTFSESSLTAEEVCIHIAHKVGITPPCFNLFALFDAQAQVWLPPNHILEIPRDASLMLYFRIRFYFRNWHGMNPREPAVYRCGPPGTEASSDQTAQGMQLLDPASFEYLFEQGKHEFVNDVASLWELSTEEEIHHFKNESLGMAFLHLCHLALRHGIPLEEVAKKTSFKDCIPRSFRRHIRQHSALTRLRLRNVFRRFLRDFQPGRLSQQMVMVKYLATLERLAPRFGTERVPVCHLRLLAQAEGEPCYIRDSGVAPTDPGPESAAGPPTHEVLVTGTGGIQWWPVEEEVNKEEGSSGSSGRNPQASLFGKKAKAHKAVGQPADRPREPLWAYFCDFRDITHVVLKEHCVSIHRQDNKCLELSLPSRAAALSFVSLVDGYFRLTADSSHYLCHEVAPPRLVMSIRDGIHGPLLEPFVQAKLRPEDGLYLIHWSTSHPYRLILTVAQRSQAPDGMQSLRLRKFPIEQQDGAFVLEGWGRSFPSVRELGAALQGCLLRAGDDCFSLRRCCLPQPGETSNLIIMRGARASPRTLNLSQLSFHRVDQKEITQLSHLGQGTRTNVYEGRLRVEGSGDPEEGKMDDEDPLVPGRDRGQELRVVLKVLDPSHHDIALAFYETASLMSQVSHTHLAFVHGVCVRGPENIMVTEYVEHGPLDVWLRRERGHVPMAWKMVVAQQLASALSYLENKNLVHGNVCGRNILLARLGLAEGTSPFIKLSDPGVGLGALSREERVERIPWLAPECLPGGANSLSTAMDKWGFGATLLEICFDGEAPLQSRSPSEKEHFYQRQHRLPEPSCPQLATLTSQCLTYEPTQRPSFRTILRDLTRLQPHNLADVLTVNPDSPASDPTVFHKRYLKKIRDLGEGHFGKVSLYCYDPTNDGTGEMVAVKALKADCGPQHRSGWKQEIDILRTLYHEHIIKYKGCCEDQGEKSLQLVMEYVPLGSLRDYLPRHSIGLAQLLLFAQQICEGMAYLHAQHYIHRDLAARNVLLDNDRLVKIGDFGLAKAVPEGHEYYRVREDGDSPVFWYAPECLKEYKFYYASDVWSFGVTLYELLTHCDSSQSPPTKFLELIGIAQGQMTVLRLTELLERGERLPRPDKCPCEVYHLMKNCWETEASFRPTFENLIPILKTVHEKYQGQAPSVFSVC

RET_S891A = target: T10, RET_S891A (Homo sapiens, UniProt P07949, S891A); assay: Proqinase Kinase profiling; format: biochemical; details: read-out: % inhibition at 100nM
T10 construct: purchased DiscoverX
T10 sequence (P07949 29-1114 S891A): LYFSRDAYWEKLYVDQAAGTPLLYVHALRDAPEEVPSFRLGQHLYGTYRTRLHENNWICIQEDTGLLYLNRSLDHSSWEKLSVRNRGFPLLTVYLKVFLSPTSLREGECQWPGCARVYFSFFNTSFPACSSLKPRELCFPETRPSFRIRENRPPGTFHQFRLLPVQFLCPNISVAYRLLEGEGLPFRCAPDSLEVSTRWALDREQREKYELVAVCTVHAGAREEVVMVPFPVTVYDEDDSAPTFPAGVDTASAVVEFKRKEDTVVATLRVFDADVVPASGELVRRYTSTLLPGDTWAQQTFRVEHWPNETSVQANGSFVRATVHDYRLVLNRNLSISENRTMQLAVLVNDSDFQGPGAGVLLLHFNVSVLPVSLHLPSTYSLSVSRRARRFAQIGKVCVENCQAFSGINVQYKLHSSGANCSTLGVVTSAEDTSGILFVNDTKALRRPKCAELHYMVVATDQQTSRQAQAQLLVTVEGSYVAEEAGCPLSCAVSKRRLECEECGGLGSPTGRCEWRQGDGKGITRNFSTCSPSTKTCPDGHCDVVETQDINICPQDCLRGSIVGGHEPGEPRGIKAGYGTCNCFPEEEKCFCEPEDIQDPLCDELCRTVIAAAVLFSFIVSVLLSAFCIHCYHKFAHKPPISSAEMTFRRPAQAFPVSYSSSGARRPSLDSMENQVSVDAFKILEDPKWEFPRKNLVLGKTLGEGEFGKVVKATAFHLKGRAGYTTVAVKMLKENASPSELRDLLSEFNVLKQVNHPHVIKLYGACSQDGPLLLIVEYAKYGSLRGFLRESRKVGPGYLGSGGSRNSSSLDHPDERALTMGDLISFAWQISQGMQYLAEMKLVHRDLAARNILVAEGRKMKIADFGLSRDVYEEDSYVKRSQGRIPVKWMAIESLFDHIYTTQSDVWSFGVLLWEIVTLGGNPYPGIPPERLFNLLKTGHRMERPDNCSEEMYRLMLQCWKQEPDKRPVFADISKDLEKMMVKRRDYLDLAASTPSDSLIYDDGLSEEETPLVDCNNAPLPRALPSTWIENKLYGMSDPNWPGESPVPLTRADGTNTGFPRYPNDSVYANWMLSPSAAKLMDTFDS

RIPK2 = target: T11, RIPK2 (Homo sapiens, UniProt O43353); assay: Proqinase Kinase profiling; format: biochemical; details: read-out: % inhibition at 100nM
T11 construct: purchased DiscoverX
T11 sequence (O43353 whole entry): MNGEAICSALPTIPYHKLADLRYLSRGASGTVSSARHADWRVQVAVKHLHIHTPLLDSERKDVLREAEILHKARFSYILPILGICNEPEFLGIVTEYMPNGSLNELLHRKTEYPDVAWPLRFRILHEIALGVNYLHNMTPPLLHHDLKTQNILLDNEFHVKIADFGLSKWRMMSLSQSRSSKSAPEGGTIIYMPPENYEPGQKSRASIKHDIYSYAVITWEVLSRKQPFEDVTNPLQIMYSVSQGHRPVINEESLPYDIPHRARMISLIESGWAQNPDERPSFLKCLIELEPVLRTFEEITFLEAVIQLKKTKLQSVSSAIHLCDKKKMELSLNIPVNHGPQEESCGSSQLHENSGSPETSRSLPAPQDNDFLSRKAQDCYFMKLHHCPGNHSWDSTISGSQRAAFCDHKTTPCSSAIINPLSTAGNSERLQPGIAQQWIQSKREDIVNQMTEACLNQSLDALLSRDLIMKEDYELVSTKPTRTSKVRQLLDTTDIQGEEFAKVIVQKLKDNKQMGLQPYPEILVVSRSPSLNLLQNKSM

SRPK3 = target: T12, SRPK3 (Homo sapiens, UniProt Q9UPE1); assay: Proqinase Kinase profiling; format: biochemical; details: read-out: % inhibition at 100nM
T12 construct: purchased DiscoverX

FLT3_ITD = assay: Proqinase Kinase profiling; format: biochemical
CDK2_cyclinE = target: T13, CDK2_cyclinE (Homo sapiens, UniProt P24941); assay: Proqinase Kinase profiling; format: biochemical; details: read-out: % inhibition at 100nM
T13 construct: purchased DiscoverX

MAP3K1 = target: T14, MAP3K1 (Homo sapiens, UniProt Q13233); assay: Proqinase Kinase profiling; format: biochemical; details: read-out: % inhibition at 100nM
T14 construct: purchased DiscoverX
T14 sequence (Q13233 whole entry): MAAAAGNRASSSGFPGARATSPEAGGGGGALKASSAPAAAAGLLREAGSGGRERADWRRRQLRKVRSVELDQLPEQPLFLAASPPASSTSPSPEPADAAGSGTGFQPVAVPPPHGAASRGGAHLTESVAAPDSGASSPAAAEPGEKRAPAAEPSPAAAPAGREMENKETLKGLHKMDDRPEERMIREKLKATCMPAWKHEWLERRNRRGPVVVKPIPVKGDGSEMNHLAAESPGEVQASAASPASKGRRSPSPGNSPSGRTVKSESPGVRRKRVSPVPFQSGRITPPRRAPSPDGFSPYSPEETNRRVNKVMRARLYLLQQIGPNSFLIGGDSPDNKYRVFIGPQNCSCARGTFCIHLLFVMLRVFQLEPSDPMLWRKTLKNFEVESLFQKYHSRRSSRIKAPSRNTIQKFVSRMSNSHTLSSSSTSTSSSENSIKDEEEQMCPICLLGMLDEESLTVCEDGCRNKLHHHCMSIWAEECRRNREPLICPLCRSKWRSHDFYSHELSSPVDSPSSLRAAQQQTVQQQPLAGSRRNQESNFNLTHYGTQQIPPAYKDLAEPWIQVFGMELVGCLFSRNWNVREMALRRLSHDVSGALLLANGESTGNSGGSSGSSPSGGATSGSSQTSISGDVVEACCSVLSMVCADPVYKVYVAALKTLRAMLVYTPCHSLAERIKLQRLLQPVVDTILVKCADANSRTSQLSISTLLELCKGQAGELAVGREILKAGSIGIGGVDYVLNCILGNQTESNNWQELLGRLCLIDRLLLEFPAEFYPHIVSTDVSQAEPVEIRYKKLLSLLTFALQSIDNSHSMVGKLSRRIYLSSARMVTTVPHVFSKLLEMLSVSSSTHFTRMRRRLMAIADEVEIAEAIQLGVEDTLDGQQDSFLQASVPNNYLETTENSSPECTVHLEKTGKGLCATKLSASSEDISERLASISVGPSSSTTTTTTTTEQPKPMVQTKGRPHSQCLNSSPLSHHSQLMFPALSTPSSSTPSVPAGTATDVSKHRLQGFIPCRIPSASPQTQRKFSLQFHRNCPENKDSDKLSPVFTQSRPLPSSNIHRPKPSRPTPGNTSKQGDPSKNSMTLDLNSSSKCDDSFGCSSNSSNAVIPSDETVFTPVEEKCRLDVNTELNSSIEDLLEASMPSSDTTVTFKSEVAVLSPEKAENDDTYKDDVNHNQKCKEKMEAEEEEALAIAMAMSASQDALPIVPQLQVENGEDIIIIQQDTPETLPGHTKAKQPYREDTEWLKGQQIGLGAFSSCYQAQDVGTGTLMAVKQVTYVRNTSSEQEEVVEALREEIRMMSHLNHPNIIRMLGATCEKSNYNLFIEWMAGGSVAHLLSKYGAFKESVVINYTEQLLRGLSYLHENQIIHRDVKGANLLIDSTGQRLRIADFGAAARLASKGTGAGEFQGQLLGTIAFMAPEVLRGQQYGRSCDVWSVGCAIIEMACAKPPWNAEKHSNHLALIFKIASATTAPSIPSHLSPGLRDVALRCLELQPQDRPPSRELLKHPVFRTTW

FES = target: T15, FES (Homo sapiens, UniProt P07332); assay: Proqinase Kinase profiling; format: biochemical; details: read-out: % inhibition at 100nM
T15 construct: purchased DiscoverX

CSF1R = target: T16, CSF1R (Homo sapiens, UniProt P07333); assay: Proqinase Kinase profiling; format: biochemical; details: read-out: % inhibition at 100nM
T16 construct: purchased DiscoverX

MAPK15 = target: T17, MAPK15 (Homo sapiens, UniProt Q8TD08); assay: Proqinase Kinase profiling; format: biochemical; details: read-out: % inhibition at 100nM
T17 construct: purchased DiscoverX

EEF2K = target: T18, EEF2K (Homo sapiens, UniProt O00418); assay: Proqinase Kinase profiling; format: biochemical; details: read-out: % inhibition at 100nM
T18 construct: purchased DiscoverX

MET_F1200I = target: T19, MET_F1200I (Homo sapiens, UniProt P08581, F1200I); assay: Proqinase Kinase profiling; format: biochemical; details: read-out: % inhibition at 100nM
T19 construct: purchased DiscoverX

RET_G691S = target: T20, RET_G691S (Homo sapiens, UniProt P07949, G691S); assay: Proqinase Kinase profiling; format: biochemical; details: read-out: % inhibition at 100nM
T20 construct: purchased DiscoverX
T20 sequence (P07949 29-1114 G691S): as the sequence (P07949 29-1114 S891A) above, with G663S, A863S counted along it

caALK2 = target: T21, caALK2 (Homo sapiens, UniProt Q04771, Q207D); assay: BRE-LUC with constitutive active ALK2 in C2C12 cells; format: cell-based; details: compound 0.5μM 16 hours
T21 construct: expressed in transfected cells; host or cells: C2C12 murine myofibroblast cells
T21 sequence (Q04771 21-509 Q207D): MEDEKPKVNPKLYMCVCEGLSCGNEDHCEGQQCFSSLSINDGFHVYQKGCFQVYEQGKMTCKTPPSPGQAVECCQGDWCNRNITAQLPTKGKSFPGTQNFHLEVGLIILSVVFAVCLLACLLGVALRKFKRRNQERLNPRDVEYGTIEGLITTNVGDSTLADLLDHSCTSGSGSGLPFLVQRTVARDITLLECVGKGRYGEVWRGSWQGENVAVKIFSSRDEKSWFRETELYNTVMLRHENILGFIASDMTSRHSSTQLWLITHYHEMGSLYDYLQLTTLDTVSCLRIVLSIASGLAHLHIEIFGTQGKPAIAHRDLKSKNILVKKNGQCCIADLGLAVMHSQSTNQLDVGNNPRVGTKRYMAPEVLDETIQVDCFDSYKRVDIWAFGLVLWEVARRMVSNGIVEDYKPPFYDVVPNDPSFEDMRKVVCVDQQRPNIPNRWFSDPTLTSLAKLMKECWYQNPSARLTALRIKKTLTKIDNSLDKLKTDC
Experimental: (§1) Compounds were added for 16 hours at 0.5μM before luciferase activity was measured.
(§2) For luciferase reporter assays, cells were seeded in 24-well plates and transfected with DharmaFECT Duo (Fisher Scientific, Landsmeer, The Netherlands), following the recommendations of the manufacturer. 48 hours after transfection the cells were harvested and lysed. […] Each transfection mixture was equalized with empty vector when necessary and every experiment was performed in triplicate.

NEK6 = target: T22, NEK6 (Homo sapiens, UniProt Q9HC98); assay: Proqinase Kinase profiling; format: biochemical; details: read-out: % inhibition at 100nM
T22 construct: purchased DiscoverX

DYRK4 = target: T23, DYRK4 (Homo sapiens, UniProt Q9NR20); assay: Proqinase Kinase profiling; format: biochemical; details: read-out: % inhibition at 100nM
T23 construct: purchased DiscoverX

MAP3K8 = target: T24, MAP3K8 (Homo sapiens, UniProt P41279); assay: Proqinase Kinase profiling; format: biochemical; details: read-out: % inhibition at 100nM
T24 construct: purchased DiscoverX

CHEK2 = target: T25, CHEK2 (Homo sapiens, UniProt O96017); assay: Proqinase Kinase profiling; format: biochemical; details: read-out: % inhibition at 100nM
T25 construct: purchased DiscoverX

PKN1 = target: T26, PKN1 (Homo sapiens, UniProt Q16512); assay: Proqinase Kinase profiling; format: biochemical; details: read-out: % inhibition at 100nM
T26 construct: purchased DiscoverX

TAOK3 = target: T27, TAOK3 (Homo sapiens, UniProt Q9H2K8); assay: Proqinase Kinase profiling; format: biochemical; details: read-out: % inhibition at 100nM
T27 construct: purchased DiscoverX

ZAP70 = target: T28, ZAP70 (Homo sapiens, UniProt P43403); assay: Proqinase Kinase profiling; format: biochemical; details: read-out: % inhibition at 100nM
T28 construct: purchased DiscoverX

AURKA = target: T29, AURKA (Homo sapiens, UniProt O14965); assay: Proqinase Kinase profiling; format: biochemical; details: read-out: % inhibition at 100nM
T29 construct: purchased DiscoverX

SRC = target: T30, SRC (Homo sapiens, UniProt P12931); assay: Proqinase Kinase profiling; format: biochemical; details: read-out: % inhibition at 100nM
T30 construct: purchased DiscoverX

CDK1_cyclinA2 = target: T31, CDK1_cyclinA2 (Homo sapiens, UniProt P06493); assay: Proqinase Kinase profiling; format: biochemical; details: read-out: % inhibition at 100nM
T31 construct: purchased DiscoverX

CDK1_cyclinE1 = target: T32, CDK1_cyclinE1 (Homo sapiens, UniProt P06493); assay: Proqinase Kinase profiling; format: biochemical; details: read-out: % inhibition at 100nM
T32 construct: purchased DiscoverX

MET_D1228H = target: T33, MET_D1228H (Homo sapiens, UniProt P08581, D1228H); assay: Proqinase Kinase profiling; format: biochemical; details: read-out: % inhibition at 100nM
T33 construct: purchased DiscoverX

MAP3K10 = target: T34, MAP3K10 (Homo sapiens, UniProt Q02779); assay: Proqinase Kinase profiling; format: biochemical; details: read-out: % inhibition at 100nM
T34 construct: purchased DiscoverX

FGFR2 = target: T35, FGFR2 (Homo sapiens, UniProt P21802); assay: Proqinase Kinase profiling; format: biochemical; details: read-out: % inhibition at 100nM
T35 construct: purchased DiscoverX

EPHB3 = target: T36, EPHB3 (Homo sapiens, UniProt P54753); assay: Proqinase Kinase profiling; format: biochemical; details: read-out: % inhibition at 100nM
T36 construct: purchased DiscoverX

ROS1 = target: T37, ROS1 (Homo sapiens, UniProt P08922); assay: Proqinase Kinase profiling; format: biochemical; details: read-out: % inhibition at 100nM
T37 construct: purchased DiscoverX

STK4 = target: T38, STK4 (Homo sapiens, UniProt Q13043); assay: Proqinase Kinase profiling; format: biochemical; details: read-out: % inhibition at 100nM
T38 construct: purchased DiscoverX

[1] = system: BMP-6-induced BRE-LUC reporter activity; assay: BMP BRE-LUC reporter assay in KS483 cells; format: cell-based, mouse; details: BMP-6 50 ng/mL 16 hours
Experimental: as §1, §2

| SMILES | inhibition at 0.1 µM (FRAP1) | inhibition at 0.1 µM (MAP4K4) | inhibition at 0.1 µM (EIF2AK3) | inhibition at 0.1 µM (RPS6KA4) | inhibition at 0.1 µM (RPS6KB2) | inhibition at 0.1 µM (FGFR4) | inhibition at 0.1 µM (ABL1_Q252H) | inhibition at 0.1 µM (EGFR_G719C) | inhibition at 0.1 µM (TYK2) | inhibition at 0.1 µM (RET_S891A) | inhibition at 0.1 µM (RIPK2) | inhibition at 0.1 µM (SRPK3) | % inhibition at 100nM (FLT3_ITD) | inhibition at 0.1 µM (CDK2_cyclinE) | inhibition at 0.1 µM (MAP3K1) | inhibition at 0.1 µM (FES) | inhibition at 0.1 µM (CSF1R) | inhibition at 0.1 µM (MAPK15) | inhibition at 0.1 µM (EEF2K) | inhibition at 0.1 µM (MET_F1200I) | also measured |
| --- | --- | --- | --- | --- | --- | --- | --- | --- | --- | --- | --- | --- | --- | --- | --- | --- | --- | --- | --- | --- | --- |
| Clc1cc2cc(c1)-c1cnn3ccc(nc13)NCCOCCO2 [OD36] | 14% | 38% | 1% | 19% | 11% | 9% | 33% | 19% | 14% | 63% | 97% | 9% | 36% | 7% | 8% | 9% | 16% | 17% | -9% | 4% | inhibition at 0.1 µM (RET_G691S): 25%; Inhibition of caALK2-driven BRE-LUC activity (caALK2): exclusively inhibited ALK2; inhibition at 0.1 µM (NEK6): -7%; inhibition at 0.1 µM (DYRK4): 14%; inhibition at 0.1 µM (MAP3K8): 5%; inhibition at 0.1 µM (CHEK2): 8%; inhibition at 0.1 µM (PKN1): 16%; inhibition at 0.1 µM (TAOK3): 10%; inhibition at 0.1 µM (ZAP70): -3%; inhibition at 0.1 µM (AURKA): -7%; inhibition at 0.1 µM (SRC): 15%; inhibition at 0.1 µM (CDK1_cyclinA2): 11%; inhibition at 0.1 µM (CDK1_cyclinE1): 8%; inhibition at 0.1 µM (MET_D1228H): 8%; inhibition at 0.1 µM (MAP3K10): 13%; inhibition at 0.1 µM (FGFR2): 8%; inhibition at 0.1 µM (EPHB3): 1%; inhibition at 0.1 µM (ROS1): 7%; inhibition at 0.1 µM (STK4): 11%; Inhibition of BMP-6-stimulated BRE-LUC reporter activity [1]: in the submicromolar range |
| Cc1cc2cc(c1)-c1cnn3ccc(nc13)NCCNC(=O)CCN(C)C2 [OD52] | -1% | 5% | -14% | -8% | 4% | -28% | 1% | -31% | -3% | 84% | 61% | -5% | 19% | 5% | -14% | -26% | -1% | -3% | -13% | -4% | inhibition at 0.1 µM (RET_G691S): 24%; Inhibition of caALK2-driven BRE-LUC activity (caALK2): exclusively inhibited ALK2; inhibition at 0.1 µM (NEK6): -12%; inhibition at 0.1 µM (DYRK4): 4%; inhibition at 0.1 µM (MAP3K8): -10%; inhibition at 0.1 µM (CHEK2): -3%; inhibition at 0.1 µM (PKN1): 5%; inhibition at 0.1 µM (TAOK3): -1%; inhibition at 0.1 µM (ZAP70): -13%; inhibition at 0.1 µM (AURKA): -6%; inhibition at 0.1 µM (SRC): -6%; inhibition at 0.1 µM (CDK1_cyclinA2): 1%; inhibition at 0.1 µM (CDK1_cyclinE1): -2%; inhibition at 0.1 µM (MET_D1228H): -11%; inhibition at 0.1 µM (MAP3K10): -3%; inhibition at 0.1 µM (FGFR2): -6%; inhibition at 0.1 µM (EPHB3): -8%; inhibition at 0.1 µM (ROS1): 5%; inhibition at 0.1 µM (STK4): 8%; Inhibition of BMP-6-stimulated BRE-LUC reporter activity [1]: in the submicromolar range |

Reference: PMC6874179, “Development of Macrocycle Kinase Inhibitors for ALK2 Using Fibrodysplasia Ossificans Progressiva‐Derived Endothelial Cells” (JBMR Plus, 2019)
